From ChEMBL document CHEMBL1201862, “PubChem BioAssay data set” (2004) come the findings set out here.

Test systems include A498; A549; ACHN; HCT-15; HOP-62; HT-29; IGROV-1; KM12; MCF7; MOLT-4; NCI-H522; OVCAR-8; PC-3; RXF 393; SF-295; SK-MEL-28; SK-MEL-2; SK-OV-3; SN12C; SR.
What all share (test): NCI anticancer screen, dose series, 48 h

The structures appear in SMILES notation.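 Where inhibition never reached the appropriate level, the endpoint shown equals the highest concentration tested. Otherwise, values were interpolated linearly from a five-concentration, 48-hour dose response in 96-well plates. GI50: concentration for 50% inhibition of growth.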 The source made the active and inactive calls. Cut-off read from the data, not from the text of the source: active = GI50 up to about 1.1 µM and inactive = higher. A value given as a limit tells only on which side of the number the result lay.

In the case of `Cc1nnc(SCc2nc(C#N)c(C#N)nc2CSc2nnc(C)s2)s1`, the GI50 with A498 is 27.4 µM (inactive); in the assay with A549, 33.3 µM (inactive); in the assay on ACHN it was 8.53 µM (inactive); in the assay on HCT-15, 7.66 µM; with HOP-62, 19.1 µM (inactive); in the assay on HT-29, 18.2 µM (inactive). Besides, the GI50 in the assay with IGROV-1 is 16.8 µM (inactive); in the assay with KM12, 19.3 µM (inactive); in the assay on MCF7 it was 12.3 µM (inactive); with MOLT-4, 2.51 µM (inactive); in the assay on NCI-H522, 3.34 µM (inactive); with OVCAR-8, 12.9 µM (inactive). Further, the GI50 with PC-3 is 14.8 µM (inactive); in the assay on RXF 393 it was 6.76 µM (inactive); in the assay on SF-295, 39.4 µM (inactive); in the assay on SK-MEL-28, 26.9 µM (inactive); with SK-MEL-2 it was 25.2 µM (inactive); in the assay with SK-OV-3 it was 33.3 µM (inactive). Moreover, the GI50 in the assay with SN12C is 17.3 µM (inactive); in the assay on SR it was 4.6 µM (inactive).
Turning to `CC(=O)Nc1cc(Cl)cc(Cl)c1O`, the GI50 in the assay with A498 is > 100 µM (inactive); with A549, > 100 µM (inactive); in the assay on ACHN it was > 100 µM (inactive); in the assay on HCT-15, > 100 µM; in the assay on HOP-62 it was > 100 µM (inactive); with HT-29, > 100 µM (inactive). Also, the GI50 in the assay with IGROV-1, in the assay with KM12, with MCF7, in the assay with MOLT-4, with NCI-H522 and in the assay with OVCAR-8 was > 100 µM (inactive) in each case. The GI50 in the assay with PC-3, with RXF 393, in the assay with SF-295, in the assay with SK-MEL-28, in the assay with SK-MEL-2 and with SK-OV-3 was > 100 µM (inactive) throughout. Further, the GI50 in the assay on SN12C and with SR was > 100 µM (inactive) in each case.
Consider `CCOc1cc2c(cc1O)C=C[C@@H]1[C@@H]2CC[C@]2(C)[C@@H](O)CC[C@@H]12`, for which the GI50 in the assay with A498 is 7.11 µM (inactive); in the assay with A549, 4.27 µM (inactive); in the assay with ACHN, 11.6 µM (inactive); in the assay with HCT-15, 0.562 µM; in the assay on HOP-62, 3.85 µM (inactive); in the assay on HT-29 it was 10 µM (inactive). In addition, the GI50 is 2.88 µM (inactive) with IGROV-1; 5.3 µM (inactive) with KM12; 3.61 µM (inactive) with MCF7; 2.91 µM (inactive) in the assay with MOLT-4; 1.77 µM (inactive) in the assay on NCI-H522; 4.29 µM (inactive) in the assay on OVCAR-8. The GI50 was 3.64 µM (inactive) in the assay with PC-3; 7.29 µM (inactive) in the assay on RXF 393; 1.91 µM (inactive) in the assay on SF-295; 22.3 µM (inactive) in the assay on SK-MEL-28; 4.38 µM (inactive) with SK-MEL-2; 3.34 µM (inactive) in the assay with SK-OV-3. The GI50 was 4.52 µM (inactive) with SN12C and 0.472 µM (active) with SR.
